One compound from article PMC7949139, “The molecular basis of OH-PCB estrogen receptor activation” (The Journal of Biological Chemistry, 2021) can be followed below.

What all share (assay type): biochemical
Assay [1] addresses T1, spin-labeled SULT1E1, spin label attached at Cys residue 233 (C69S/N233C) (Homo sapiens, UniProt P49888, C69S/N233C).
T1 construct: E. coli codon-optimized SULT1E1 coding region inserted into the PreScission Protease cleavage site; His/GST/MBP triple tag (N, cleaved yes); made in house; host or cells: E. coli BL21(DE3)
T1 sequence (P49888 1-294 C69S/N233C): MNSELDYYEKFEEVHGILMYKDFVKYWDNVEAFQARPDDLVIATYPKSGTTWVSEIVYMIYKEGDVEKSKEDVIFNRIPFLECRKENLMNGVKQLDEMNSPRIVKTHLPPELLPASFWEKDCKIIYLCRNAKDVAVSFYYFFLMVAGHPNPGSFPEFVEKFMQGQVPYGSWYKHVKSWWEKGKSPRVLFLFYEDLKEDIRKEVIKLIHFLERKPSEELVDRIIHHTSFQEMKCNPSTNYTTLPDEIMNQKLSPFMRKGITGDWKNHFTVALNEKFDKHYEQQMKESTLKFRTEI
The assay can be described thus: Initial-rate studies, spin-labeled construct (label at Cys 233). Particulars: spin label at Cys 233; parentheses = one SD; read-out: Ki OH-PCB1. As to the method:
(§1) Spin labels were attached to the SULT1E1 scaffold at Cys residues that were site-specifically incorporated via PCR-based mutagenesis. Prior to creating spin-label attachment constructs, reactive Cys was removed from the native scaffold. Only one of the four native SULT1E1 Cys (i.e., C69) reacts with DTNB ([39]), and mutagenic conversion of C69 to ser produced a stable, fully active non-DTNB-reactive scaffold. Five individual cys-attachment constructs were prepared from the C69S mutant (G16C, K25C, N150C, Q163C, and N233C). Mutants were labeled (see, Experimental procedures) and the initial rate parameters (kcat, Km and Ki) of each spin-labeled mutant were determined (see, Experimental procedures, Initial-Rate studies) to evaluate whether the catalytic integrity of the constructs had been compromised by the insertions and/or spin label attachments. […]
(§2) Labels (N-cyclohexylmale-imide or 3-maleimido-PROXYL) were added in 20-fold excess over reactive cysteine to a solution containing SULT1E1 construct (50 μM active sites), 0.50 mM PAP, and 50 mM KPO4 (pH 7.4), 25 °C ± 2 deg. […] The reactions were monitored by using DTNB to measure unreacted cysteine and were considered complete when >98% of the cysteine had reacted (∼3 h).
(§3) C. Reaction progress was monitored via the fluorescence change associated with 1-HP sulfonation (λex = 325 nm, λem = 370 nm ([51], [52])). […]

The target of assay [2] is T2, spin-labeled SULT1E1, spin label attached at Cys residue 150 (C69S/N150C) (Homo sapiens, UniProt P49888, C69S/N150C).
T2 construct: E. coli codon-optimized SULT1E1 coding region inserted into the PreScission Protease cleavage site; His/GST/MBP triple tag (N, cleaved yes); made in house; host or cells: E. coli BL21(DE3)
T2 sequence (P49888 1-294 C69S/N150C): T1 sequence (P49888 1-294 C69S/N233C) with N150C, C233N
The assay can be described thus: Initial-rate studies, spin-labeled construct (label at Cys 150). The settings on record: spin label at Cys 150; parentheses = one SD; read-out: Ki OH-PCB1. The protocol:
as §1, §2, §3

Assay [3] addresses T3, spin-labeled SULT1E1, spin label attached at Cys residue 16 (C69S/G16C) (Homo sapiens, UniProt P49888, C69S/G16C).
T3 construct: E. coli codon-optimized SULT1E1 coding region inserted into the PreScission Protease cleavage site; His/GST/MBP triple tag (N, cleaved yes); made in house; host or cells: E. coli BL21(DE3)
T3 sequence (P49888 1-294 G16C/C69S): T1 sequence (P49888 1-294 C69S/N233C) with G16C, C233N
The assay can be described thus: Initial-rate studies, spin-labeled construct (label at Cys 16). The settings on record: spin label at Cys 16; parentheses = one SD; read-out: Ki OH-PCB1. As to the method: as §1, §2, §3

Residue numbers refer to the chain shown, from its start.

Consider `Oc1ccc(-c2c(Cl)cccc2Cl)cc1` [OH-PCB1, 4ʹ-OH-2,6-dichlorobiphenol], for which the Ki (as a rule, a measure of affinity in units of concentration, obtained from inhibition or displacement) in assay [1] was 58 nM; in assay [2], 65 nM; in assay [3], 63 nM.
